Tests used:
Type in all cases: in vivo
Set-up in all cases: key: 0 is no effect; 10 is complete control
[1] = system: smallflower flatsedge (Cyperus difformis); experiment: Test B flood test; details: for Plant response rating, S. Flatsedge: Postemergence (flood test species)
Outline: (§1)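 Flood test on plants grown to the 2-leaf stage; treated plants kept in greenhouse twelve to sixteen days, then visually rated against controls on a 0 (no effect) to 10 (complete control) scale.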

[2] = system: duck salad (Heteranthera limosa); experiment: Test B flood test; details: for Plant response rating, Ducksalad: Postemergence (flood test species)
Outline: as §1

[3] = system: bamyardgrass (Echinochloa crus-galli); experiment: Test B flood test; details: for Plant response rating, Barnyardgrass: Postemergence (flood test species)
Outline: as §1

rice (Oryza sativa) = experiment: Test B flood test; details: for Plant response rating, Rice: Postemergence (flood test species)
Outline: as §1

[4] = system: cocklebur (Xanthium strumarium); experiment: Test B pre-/postemergence
Outline: (§2)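 Scored visually 0 (none) to 10 (complete control) against untreated plants after twelve to sixteen greenhouse days. Test chemicals, formulated in surfactant-containing non-phytotoxic solvent, applied to soil after planting and, separately, onto 1- to 4-leaf (2–18 cm) plants.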

[5] = system: bedstraw (Galium aparine); experiment: Test B pre-/postemergence
Outline: as §2

rape (Brassica napus) = experiment: Test B pre-/postemergence
Outline: as §2

[6] = system: sugar beet (Beta vulgaris); experiment: Test B pre-/postemergence
Outline: as §2

corn (Zea mays) = experiment: Test B pre-/postemergence
Outline: as §2

[7] = system: momingglory (Ipomoea hederacea); experiment: Test B pre-/postemergence
Outline: as §2

[8] = system: pigweed (Amaranthus retroflexus); experiment: Test B pre-/postemergence
Outline: as §2

[9] = system: wheat (Triticum aestivum); experiment: Test B pre-/postemergence
Outline: as §2

[10] = system: broadleaf signalgrass (Brachiaria decumbens); experiment: Test B pre-/postemergence
Outline: as §2

[11] = system: velvetleaf (Abutilon theophrasti); experiment: Test B pre-/postemergence
Outline: as §2

[12] = system: giant foxtail (Setaria faberii); experiment: Test B pre-/postemergence
Outline: as §2

[13] = Rate 62 g/ha, Postemergence (flood test)
[14] = Rate 125 g/ha, Postemergence section (flood test species)
[15] = Preemergence, Rate 62 g/ha, scale of 0 to 10

Cc1cnc(-n2ccc(C(F)(F)F)n2)nc1C(=O)c1ccc(C(F)(F)F)cc1 [Compound 65]
S. Flatsedge plant response rating [1, 13]: 0 | S. Flatsedge plant response rating [1, 14]: 0 | Plant response rating, S. Flatsedge ([1]; Rate 250 g/ha): 0 | Plant response rating, S. Flatsedge ([1]; Rate 500 g/ha): 0 | Ducksalad plant response rating [2, 13]: 0 | Ducksalad plant response rating [2, 14]: 0 | Plant response rating, Ducksalad ([2]; Rate 250 g/ha): 0 | Plant response rating, Ducksalad ([2]; Rate 500 g/ha): 0 | Barnyardgrass plant response rating [3, 13]: 0 | Barnyardgrass plant response rating [3, 14]: 0 | Plant response rating, Barnyardgrass ([3]; Rate 250 g/ha): 0 | Plant response rating, Barnyardgrass ([3]; Rate 500 g/ha): 0 | Rice plant response rating (rice (Oryza sativa); [13]): 0 | Rice plant response rating (rice (Oryza sativa); [14]): 0 | Plant response rating, Rice (rice (Oryza sativa); Rate 250 g/ha): 0 | Plant response rating, Rice (rice (Oryza sativa); Rate 500 g/ha): 0 | Plant response rating, Cocklebur [4, 15]: 0 | Cocklebur plant response rating ([4]; Rate 62 g/ha, Postemergence): 1 | Cocklebur plant response rating ([4]; Rate 125 g/ha, Postemergence): 1 | Plant response rating, Cocklebur ([4]; Rate 125 g/ha, Preemergence): 0 | Plant response rating, Cocklebur ([4]; Rate 250 g/ha, Postemergence): 1 | Plant response rating, Cocklebur ([4]; Rate 250 g/ha, Preemergence): 0 | Plant response rating, Cocklebur ([4]; Rate 500 g/ha, Postemergence): 2 | Plant response rating, Cocklebur ([4]; Rate 500 g/ha, Preemergence): 0 | Plant response rating, Bedstraw [5, 15]: 0 | Bedstraw plant response rating ([5]; Rate 62 g/ha, Postemergence): 0 | Bedstraw plant response rating ([5]; Rate 125 g/ha, Postemergence): 3 | Plant response rating, Bedstraw ([5]; Rate 125 g/ha, Preemergence): 0 | Plant response rating, Bedstraw ([5]; Rate 250 g/ha, Postemergence): 7 | Plant response rating, Bedstraw ([5]; Rate 250 g/ha, Preemergence): 0 | Plant response rating, Bedstraw ([5]; Rate 500 g/ha, Postemergence): 7 | Plant response rating, Bedstraw ([5]; Rate 500 g/ha, Preemergence): 0 | Plant response rating, Rape (rape (Brassica napus); [15]): 0 | Rape plant response rating (rape (Brassica napus); Rate 62 g/ha, Postemergence): 1 | Rape plant response rating (rape (Brassica napus); Rate 125 g/ha, Postemergence): 1 | Plant response rating, Rape (rape (Brassica napus); Rate 125 g/ha, Preemergence): 0 | Plant response rating, Rape (rape (Brassica napus); Rate 250 g/ha, Postemergence): 2 | Plant response rating, Rape (rape (Brassica napus); Rate 250 g/ha, Preemergence): 0 | Plant response rating, Rape (rape (Brassica napus); Rate 500 g/ha, Postemergence): 2 | Plant response rating, Rape (rape (Brassica napus); Rate 500 g/ha, Preemergence): 0 | Plant response rating, Sugarbeets [6, 15]: 0 | Sugarbeets plant response rating ([6]; Rate 62 g/ha, Postemergence): 7 | Sugarbeets plant response rating ([6]; Rate 125 g/ha, Postemergence): 7 | Plant response rating, Sugarbeets ([6]; Rate 125 g/ha, Preemergence): 0 | Plant response rating, Sugarbeets ([6]; Rate 250 g/ha, Postemergence): 8 | Plant response rating, Sugarbeets ([6]; Rate 250 g/ha, Preemergence): 0 | Plant response rating, Sugarbeets ([6]; Rate 500 g/ha, Postemergence): 8 | Plant response rating, Sugarbeets ([6]; Rate 500 g/ha, Preemergence): 0 | Plant response rating, Corn (corn (Zea mays); [15]): 0 | Corn plant response rating (corn (Zea mays); Rate 62 g/ha, Postemergence): 1 | Corn plant response rating (corn (Zea mays); Rate 125 g/ha, Postemergence): 1 | Plant response rating, Corn (corn (Zea mays); Rate 125 g/ha, Preemergence): 0 | Plant response rating, Corn (corn (Zea mays); Rate 250 g/ha, Postemergence): 1 | Plant response rating, Corn (corn (Zea mays); Rate 250 g/ha, Preemergence): 0 | Plant response rating, Corn (corn (Zea mays); Rate 500 g/ha, Postemergence): 1 | Plant response rating, Corn (corn (Zea mays); Rate 500 g/ha, Preemergence): 0 | Plant response rating, Morningglory [7, 15]: 0 | Morningglory plant response rating ([7]; Rate 125 g/ha, Postemergence): 1 | Plant response rating, Morningglory ([7]; Rate 125 g/ha, Preemergence): 0 | Plant response rating, Morningglory ([7]; Rate 250 g/ha, Postemergence): 8 | Plant response rating, Morningglory ([7]; Rate 250 g/ha, Preemergence): 0 | Plant response rating, Morningglory ([7]; Rate 500 g/ha, Postemergence): 10 | Plant response rating, Morningglory ([7]; Rate 500 g/ha, Preemergence): 5 | Plant response rating, Redroot pigweed [8, 15]: 0 | Redroot pigweed plant response rating ([8]; Rate 62 g/ha, Postemergence): 2 | Redroot pigweed plant response rating ([8]; Rate 125 g/ha, Postemergence): 3 | Plant response rating, Redroot pigweed ([8]; Rate 125 g/ha, Preemergence): 0 | Plant response rating, Redroot pigweed ([8]; Rate 250 g/ha, Postemergence): 6 | Plant response rating, Redroot pigweed ([8]; Rate 250 g/ha, Preemergence): 0 | Plant response rating, Redroot pigweed ([8]; Rate 500 g/ha, Postemergence): 7 | Plant response rating, Redroot pigweed ([8]; Rate 500 g/ha, Preemergence): 0 | Plant response rating, Wheat [9, 15]: 0 | Wheat plant response rating ([9]; Rate 62 g/ha, Postemergence): 1 | Wheat plant response rating ([9]; Rate 125 g/ha, Postemergence): 1 | Plant response rating, Wheat ([9]; Rate 125 g/ha, Preemergence): 0 | Plant response rating, Wheat ([9]; Rate 250 g/ha, Postemergence): 2 | Plant response rating, Wheat ([9]; Rate 250 g/ha, Preemergence): 0 | Plant response rating, Wheat ([9]; Rate 500 g/ha, Postemergence): 2 | Plant response rating, Wheat ([9]; Rate 500 g/ha, Preemergence): 0 | B. signalgrass plant response rating ([10]; Rate 62 g/ha, Postemergence): 1 | B. signalgrass plant response rating ([10]; Rate 62 g/ha, Preemergence): 0 | B. signalgrass plant response rating ([10]; Rate 125 g/ha, Postemergence): 1 | Plant response rating, B. signalgrass ([10]; Rate 125 g/ha, Preemergence): 0 | Plant response rating, B. signalgrass ([10]; Rate 250 g/ha, Postemergence): 1 | Plant response rating, B. signalgrass ([10]; Rate 250 g/ha, Preemergence): 1 | Plant response rating, B. signalgrass ([10]; Rate 500 g/ha, Postemergence): 1 | Plant response rating, B. signalgrass ([10]; Rate 500 g/ha, Preemergence): 2 | Plant response rating, Velvetleaf [11, 15]: 0 | Velvetleaf plant response rating ([11]; Rate 62 g/ha, Postemergence): 1 | Velvetleaf plant response rating ([11]; Rate 125 g/ha, Postemergence): 1 | Plant response rating, Velvetleaf ([11]; Rate 125 g/ha, Preemergence): 0 | Plant response rating, Velvetleaf ([11]; Rate 250 g/ha, Postemergence): 2 | Plant response rating, Velvetleaf ([11]; Rate 250 g/ha, Preemergence): 0 | Plant response rating, Velvetleaf ([11]; Rate 500 g/ha, Postemergence): 2 | Plant response rating, Velvetleaf ([11]; Rate 500 g/ha, Preemergence): 1 | Plant response rating, Giant foxtail [12, 15]: 0 | Giant foxtail plant response rating ([12]; Rate 62 g/ha, Postemergence): 1 | Giant foxtail plant response rating ([12]; Rate 125 g/ha, Postemergence): 1 | Plant response rating, Giant foxtail ([12]; Rate 125 g/ha, Preemergence): 0 | Plant response rating, Giant foxtail ([12]; Rate 250 g/ha, Postemergence): 1 | Plant response rating, Giant foxtail ([12]; Rate 250 g/ha, Preemergence): 0 | Plant response rating, Giant foxtail ([12]; Rate 500 g/ha, Postemergence): 1 | Plant response rating, Giant foxtail ([12]; Rate 500 g/ha, Preemergence): 0

From patent US6525001B1, “Substituted pyrimidine and pyridine herbicides” (Mid-American Commercialization Corporation, priority 1997, dated 2003)
